From the Deep4Chem optical property database

Assay: solvent given as SMILES

CN(C)c1ccc(C2=Cc3ccc4ccccc4[n+]3[B-](F)(F)O2)cc1
emission maximum (in C1CCOC1): 540 nm
emission maximum (in C1COCCO1): 516 nm
emission maximum (in CC1CCCCC1): 478 nm
emission maximum (in CC#N): 573 nm
emission maximum (in CCOC(C)=O): 534 nm
emission maximum (in CCOCC): 509 nm
emission maximum (in CN(C)C=O): 581 nm
emission maximum (in CO): 564 nm
emission maximum (in COC(C)=O): 562 nm
emission maximum (in ClC(Cl)Cl): 521 nm

O=C(c1ccncc1)c1ccc(-n2c3ccccc3c3cc(-n4c5ccccc5c5ccccc54)ccc32)cc1
emission maximum (in Cc1ccccc1): 480 nm
emission maximum (in c1cc(-c2cccc(-n3c4ccccc4c4ccccc43)c2)cc(-n2c3ccccc3c3ccccc32)c1): 475.23 nm

c1ccc2c(c1)c1ccccc1n2-c1ccc(-c2ccn3nc(-c4ccc(-n5c6ccccc6c6ccccc65)cc4)nc3c2)cc1
emission maximum (in C1CCOC1): 413 nm

Oc1ccccc1
emission maximum (in C1CCCCC1): 294.99 nm

CC1=C(c2ccccc2)C(C)=[N+]2C1=C(c1c(-c3ccccn3)nc3ccccn13)c1c(C)c(-c3ccccc3)c(C)n1[B-]2(F)F
emission maximum (in ClCCl): 585 nm

Cc1ccccc1[B-]1(c2ccccc2C)n2nc(C(F)(F)F)cc2-c2c3ccccc3cc[n+]21
emission maximum (in C1CCCCC1): 414 nm
emission maximum (in Cc1ccccc1): 414 nm
emission maximum (in ClCCl): 412 nm

C(=C\c1cc[n+](Cc2ccccc2)cc1)/c1cc[n+](Cc2ccccc2)cc1
emission maximum (in CC#N): 426 nm

CCCn1c2cccc3oc4cccc5oc6cccc1c6[c+](c45)c32
emission maximum (in CC#N): 560 nm

O=c1cccc2n1C[C@@H]1CNC[C@H]2C1
emission maximum (in CC#N): 380 nm

CCN(CC)c1ccc(-c2nc3c(nc2-c2ccc(B(c4c(C)cc(C)cc4C)c4c(C)cc(C)cc4C)cc2)c2ccccc2n3C)cc1
emission maximum (in C1CCCCC1): 462 nm
emission maximum (in C1CCOC1): 528 nm
emission maximum (in CC(C)=O): 544 nm
emission maximum (in CS(C)=O): 567 nm
emission maximum (in Cc1ccccc1): 493 nm

C(=C\c1cc(/C=C/c2ccc(-n3c4ccccc4c4ccccc43)cc2)cc(/C=C/c2ccc(-n3c4ccccc4c4ccccc43)cc2)c1)/c1ccc(-n2c3ccccc3c3ccccc32)cc1
emission maximum (in C1CCOC1): 403 nm
emission maximum (in CC#N): 429 nm
emission maximum (in Cc1ccccc1): 401 nm
emission maximum (in ClCCl): 419 nm

NC(=O)Cc1cccc2ccccc12
emission maximum (in C1COCCO1): 326 nm
emission maximum (in CC#N): 325 nm
emission maximum (in CCO): 325 nm
emission maximum (in ClC(Cl)Cl): 325 nm
emission maximum (in O): 324 nm
emission maximum (in OCCO): 325 nm
emission maximum (in [2H]O[2H]): 324 nm

COc1cc(OC)cc(C2=C3C(C)=C(I)C(/C=C/c4c[nH]c5ccc([N+](=O)[O-])cc45)=[N+]3[B-](F)(F)n3c(/C=C/c4c[nH]c5ccc([N+](=O)[O-])cc45)c(I)c(C)c32)c1
emission maximum (in C1CCOC1): 720 nm
emission maximum (in CS(C)=O): 748 nm
emission maximum (in ClCCl): 721 nm

CC1(C)c2ccccc2N2c3ccccc3C3(c4cc(C#N)ccc4-c4ccc(C#N)cc43)c3cccc1c32
emission maximum (in Cc1ccccc1): 485.37 nm

CC(=O)c1c(N[C@@H](Cc2ccc(O)cc2)C(=O)O)c2ccc(N(C)C)cc2oc1=O
emission maximum (in ClCCl): 415 nm

CN(C)c1c2ccccc2cc2ccccc12
emission maximum (in C1CCCCC1): 391 nm
emission maximum (in C1CCOC1): 392 nm
emission maximum (in C1COCCO1): 392 nm
emission maximum (in CC#N): 390 nm
emission maximum (in CCO): 389 nm
emission maximum (in CN(C)C=O): 392 nm
emission maximum (in CO): 389 nm
emission maximum (in COCCOC): 392 nm
emission maximum (in CS(C)=O): 395 nm
emission maximum (in O): 390 nm
emission maximum (in OCC(O)CO): 393 nm
emission maximum (in OCCO): 392 nm

O=S(=O)(c1cccc(N2c3ccccc3Sc3ccccc32)c1)c1cccc(N2c3ccccc3Sc3ccccc32)c1
emission maximum (in C1CCOC1): 596 nm
emission maximum (in CCCCC(CC)n1c2ccc(-n3c4ccccc4c4ccccc43)cc2c2cc(-n3c4ccccc4c4ccccc43)ccc21): 554.57 nm
emission maximum (in Cc1ccccc1): 561 nm
emission maximum (in ClC(Cl)Cl): 579 nm
emission maximum (in c1cc(-n2c3ccccc3c3ccccc32)cc(-n2c3ccccc3c3ccccc32)c1): 550.83 nm

CC1=N/C(=C\c2ccc(C#N)c(N(C)C)c2)C(=O)N1C
emission maximum (in C1CCOC1): 568 nm
emission maximum (in CC#N): 592 nm
emission maximum (in CCCCCC): 496 nm

CCC1=C(C)C2=C(c3c4ccccc4c(-c4ccccc4)c4ccccc34)c3c(C)c(CC)c(C)n3[B-](F)(F)[N+]2=C1C
emission maximum (in CC#N): 536 nm
emission maximum (in CCCCCC): 539 nm
emission maximum (in CCO): 538 nm
emission maximum (in CN(C)C=O): 539 nm
emission maximum (in Cc1ccccc1): 544 nm
emission maximum (in ClCCl): 543 nm

COc1ccc(C2=[N+]3C(=Nc4c(-c5cc(OC)c(OC)c(OC)c5)cc(-c5ccc(OC)cc5)n4[B-]3(F)F)C(c3cc(OC)c(OC)c(OC)c3)=C2)cc1
emission maximum (in Cc1ccccc1): 724 nm

Cc1cccc(-c2c3ccccc3c(-c3cccc(C)n3)c3ccccc23)n1
emission maximum (in ClCCl): 428 nm
